Results published in ChEMBL document CHEMBL6071166, “Maduraflavacins A-E, Unusual Phenyl Polyene Metabolites Produced by a Rare Marine-Derived Actinomadura sp” (2024).
Activity calls are given as the source filed them. The rule behind the calls is not given here.

Assays:
[1] = tested on: Staphylococcus aureus; experiment: Antibacterial activity against Staphylococcus aureus Sau 16339 at 0.005 to 1 mg/ml by agar diffusion assay; assay type: functional, organism-based; settings: dose 0.005-1 mg/ml
[2] = tested on: Micrococcus luteus; experiment: Antibacterial activity against Micrococcus luteus at 0.005 to 1 mg/ml by agar diffusion assay; assay type: functional, organism-based; settings: dose 0.005-1 mg/ml
[3] = tested on: Micrococcus luteus; experiment: Antibacterial activity against Micrococcus luteus assessed as inhibition zone at 0.5 mg/ml by agar diffusion assay; assay type: functional; settings: read-out: IZ
[4] = tested on: Staphylococcus aureus; experiment: Antibacterial activity against Staphylococcus aureus Sau 16339 assessed as inhibition zone at 0.5 mg/ml by agar diffusion assay; assay type: functional; settings: read-out: IZ

COC(=O)/C=C/C=C/C=C/C(C)=C/C=C/c1ccccc1
Activity [1]: inactive | Activity [2]: inactive

CC(/C=C/C=C/C=C/C(=O)N[C@@H]1O[C@H](CO)[C@@H](O)[C@H](O[C@@H]2O[C@H](CO)[C@@H](O)[C@H](O[C@@H]3O[C@H](CO[C@@H]4O[C@H](CO)[C@@H](O)[C@H](O)[C@H]4O)[C@@H](O)[C@H](O)[C@H]3O)[C@H]2O)[C@H]1O)=C\C=C\c1ccccc1
zone of inhibition at 500 µg/mL [3]: 3 mm | Activity [1]: inactive

CN(C)[C@@H]1C(O)=C(C(N)=O)C(=O)[C@@]2(O)C(O)=C3C(=O)c4c(O)cccc4[C@@](C)(O)[C@H]3C[C@@H]12 [TETRACYCLINE]
zone of inhibition at 500 µg/mL [4]: 12 mm | zone of inhibition at 500 µg/mL [3]: 15 mm

CC(/C=C/C=C(C)/C=C/C(=O)N[C@@H]1O[C@H](CO)[C@@H](O)[C@H](O[C@@H]2O[C@H](CO)[C@@H](O)[C@H](O[C@@H]3O[C@H](CO[C@@H]4O[C@H](CO)[C@@H](O)[C@H](O)[C@H]4O)[C@@H](O)[C@H](O)[C@H]3O)[C@H]2O)[C@H]1O)=C\C=C\c1ccccc1
zone of inhibition at 500 µg/mL [4]: 4 mm | Activity [2]: inactive

CC(/C=C/C(=O)N[C@@H]1O[C@H](CO)[C@@H](O)[C@H](O[C@@H]2O[C@H](CO)[C@@H](O)[C@H](O[C@@H]3O[C@H](CO[C@@H]4O[C@H](CO)[C@@H](O)[C@H](O)[C@H]4O)[C@@H](O)[C@H](O)[C@H]3O)[C@H]2O)[C@H]1O)=C\C=C\c1ccccc1
Activity [1]: inactive | Activity [2]: inactive

COC(=O)/C=C/C(C)=C/C=C/C(C)=C/C=C/c1ccccc1
Activity [1]: inactive | Activity [2]: inactive
